In patent EP0360937B1, “Improved process for recovering microbially produced interferonbeta” (CETUS ONCOLOGY CORPORATION, priority 1988, dated 1990):
One block for each compound: values may come before it.

Legend:
IFN-beta [1] = molecular target: T1, IFN-beta (Homo sapiens, UniProt P01574, C38S); assay: Keeping IFN-beta soluble as guanidine HCl is removed by dialysis; supernatant and pellet analysed by SDS-PAGE and silver stain; format: physicochemical; design: key to Successful (+)/ Unsuccessful (-): Successful (+); Unsuccessful (-); conditions: for Successful (+)/ Unsuccessful (-): dialysis against sodium phosphate buffer pH 5.0; for keeping IFN-beta in solution: 15% PEG300, 25% glycerol, 50% sucrose, 20% isopropanol
T1 construct: made in house; host or cells: E. coli K12/MM294-1 carrying plasmid pSY2501 (ATCC 39,517)
Procedure: At this point, a stabilizing additive was added to the oxidized IFN-beta material while guanidine HCl is still present, and the solution was dialyzed to remove the guanidine. The solubilized, oxidized material was divided into aliquots and a different stabilizing agent or a non-ionic detergent was added to each aliquot. A summary of the stabilizing agents and non-ionic detergents used in this example, as well as the concentration used, is provided in Table 1.
Each aliquot was dialyzed against 20-50 mM sodium phosphate buffer, pH 5.0 containing the appropriate stabilizer or detergent. […] Dialysis was run at pH 5.0 because rIFN-beta is more soluble at low pH than at neutral or higher pH. As the guanidine HCl was dialyzed from the sample, a precipitate formed. The aliquots were centrifuged at 5,000 x g for 15 min and both the supernatant and the pellet, resuspended in 1% SDS, were saved. The supernatant and resuspended pellet were analyzed by SDS-PAGE (PHAST system by Pharmacia) and silver stain to locate the rIFN-beta.

IFN-beta [2] = molecular target: T1, IFN-beta; assay: Absorbance at 280 nm in supernatant after dialysis against glycerol, with varied concentration and pH; format: physicochemical; conditions: for % A₂₈₀ in Supernatant: 25 mM NaPi

T1 sequence (P01574 23-187 C38S limits assumed): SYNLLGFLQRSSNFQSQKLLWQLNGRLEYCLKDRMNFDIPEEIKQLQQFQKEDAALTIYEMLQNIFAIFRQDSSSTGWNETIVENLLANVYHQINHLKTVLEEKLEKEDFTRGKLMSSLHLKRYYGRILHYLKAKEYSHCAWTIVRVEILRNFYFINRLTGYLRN

Successful (+)/ Unsuccessful (-) (IFN-beta [1]; reagent at 20%): -
Compound: CCC(O)CO (centres unmarked) [1,2-butanediol]

Successful (+)/ Unsuccessful (-) (IFN-beta [1]; reagent at 5%): -
Compound: OCC(O)COc1ccccc1 (centres unmarked) [3-phenoxy-1,2-propanediol]

Compound: OCCO [Ethylene Glycol]
Successful (+)/ Unsuccessful (-) (IFN-beta [1]; reagent at 20%): -

keeping IFN-beta in solution (IFN-beta [1]): keep IFN-beta in solution
% A₂₈₀ in Supernatant (IFN-beta [2]; 25%, pH 4): 31%
% A₂₈₀ in Supernatant (IFN-beta [2]; 25%, pH 5): 13%
% A₂₈₀ in Supernatant (IFN-beta [2]; 50%, pH 4): 86%
% A₂₈₀ in Supernatant (IFN-beta [2]; 50%, pH 5): 50%
IFN-beta solubility on adjusting concentration and pH (IFN-beta [2]; concentration increased to 50% and pH lowered to 4): greater IFN-beta solubility
Compound: OCC(O)CO [Glycerol]

keeping IFN-beta in solution (IFN-beta [1]): keep IFN-beta in solution
Successful (+)/ Unsuccessful (-) (IFN-beta [1]; reagent at 50%): +
Compound: CC(C)O [Isopropanol]

Successful (+)/ Unsuccessful (-) (IFN-beta [1]; reagent at 20%): -
Compound: CC(O)CO (centres unmarked) [Propylene Glycol]

keeping IFN-beta in solution (IFN-beta [1]): keep IFN-beta in solution
Compound: OC[C@H]1O[C@@](CO)(O[C@H]2O[C@H](CO)[C@@H](O)[C@H](O)[C@H]2O)[C@@H](O)[C@@H]1O [Sucrose]

keeping IFN-beta in solution, detergent combined with glycerol (IFN-beta [1]; 0.01% detergent with 25% glycerol at pH 4, A280 and SDS-PAGE): keep most of the IFN-beta in solution
Compound: Tween® 80
